pIC50: −log10 of the molar value. “And” between values parts separate entries of the source, which are not always exact repeats. Equal entries are not always repeated. Where two headings read alike, the source gives them in different places.
Tests used:
[1] = system: PLA-801; experiment: In vitro cytotoxicity, IC50 by MTT method, PLA-801; format: cell-based
Description: (§1) Culture medium powder RPMI1640 was dissolved in a proper amount of tri-distilled water according to the instruction of the product. […] It was the basic culture solution. The complete culture solution was added with FBS having a final concentration of 10%, 100 U/ml penicillin and 100 µg/ml streptomycin. The solution was fully stirred by a magnetic blender, and the pH of the solution was adjusted to 6.8-7.0. The volume was kept constant. After being filtered and disinfected, the solution was kept into several containers which were sealed and stored at 4° C.
(§2) The cells were placed in a culture dish followed by the addition of complete culture liquid RPMI1640 and then cultured in a incubator comprising 5% CO2 at 37° C. In the exponential growth phase, the cells grew vigorously. If the culture liquid became yellow, the liquid should be replaced instantly.
(§3) The cells, at a concentration of 10^5/ml, were inoculated at a 96-pore culture plate. In each pore, 100 μl cells were inoculated. The cells were placed in a CO2 incubator until the cells were in the logarithmic growth phase. The samples to be tested were added according to the preset concentration gradient. For each gradient, the test was conducted at least three times. An equivalent amount of solvent for dissolving the samples was added in the control group. After 48 h of culture, each pore was added 20 μl MTT (5 mg/ml). The cells were cultured at 37° C. for 4 h. After the supernatant was carefully removed, 100 μl DMSO was added in each pore. The plate was agitated for about 10 minutes such that the precipitates were dissolved. After that, OD value was identified with a Microplate Reader at the wavelength of 490 nm. The survival rate of the cells at various concentrations was calculated according to the following formula:
(§4) Survival rate %=average OD value of the sample group/average OD value of the control group×100%
(§5) Plots of log survival rate of the cells vs. concentration of the medicament were constructed, and the IC50 value of each sample was calculated according to graphing methods.

[2] = system: BGC-823; experiment: In vitro cytotoxicity, IC50 by MTT method, BGC-823; format: cell-based; conditions: Homo sapiens, BGC-823
Description: as §1, §2, §3, §4, §5

[3] = system: Lovo; experiment: In vitro cytotoxicity, IC50 by MTT method, Lovo; format: cell-based; conditions: Homo sapiens
Description: as §1, §2, §3, §4, §5

[4] = system: NIH3T3; experiment: In vitro cytotoxicity, IC50 by MTT method, NIH3T3; format: cell-based; conditions: Mus musculus
Description: as §1, §2, §3, §4, §5

[5] = system: HepG2; experiment: In vitro cytotoxicity, IC50 by MTT method, HepG2; format: cell-based, human; conditions: Homo sapiens
Description: as §1, §2, §3, §4, §5

[6] = system: Bel-7402; experiment: In vitro cytotoxicity, IC50 by MTT method, Bel-7402; format: cell-based; conditions: Homo sapiens, Bel-7402
Description: as §1, §2, §3, §4, §5

[7] = system: Hela; experiment: In vitro cytotoxicity, IC50 by MTT method, Hela; format: cell-based; conditions: Homo sapiens
Description: as §1, §2, §3, §4, §5

[8] = PLA-801 cell strain, read-out: IC50 PLA-801
[9] = BGC823 cell strain, read-out: IC50 BGC823
[10] = Lovo cell strain, read-out: IC50 Lovo
[11] = NIH3T3 cell strain, read-out: IC50 NIH3T3
[12] = HepG2 cell strain, read-out: IC50 HepG2
[13] = Bel7402 cell strain, read-out: IC50 Bel7402
[14] = Hela cell strain, read-out: IC50 Hela

melting point	SMILES	pIC50 ([1]; PLA-801, MTT, read-out: IC50)	pIC50 ([2]; BGC823, MTT, read-out: IC50)	pIC50 ([3]; Lovo, MTT, read-out: IC50)	pIC50 ([4]; NIH3T3, MTT, read-out: IC50)	pIC50 ([5]; HepG2, MTT, read-out: IC50)	pIC50 ([6]; BeI7402, MTT, read-out: IC50)	pIC50 ([7]; Hela, MTT, read-out: IC50)	pIC50 [1, 8]	pIC50 [2, 9]	pIC50 [3, 10]	pIC50 [4, 11]	pIC50 [5, 12]	pIC50 [6, 13]	pIC50 [7, 14]
233 to 236 °C	CCNC1(C(N)=O)C=C2C(=Nc3ccccc32)C=N1 (stereo not drawn) [Compound 19, 3-ethylamino-β-carboline-3-formamide]	3.85	4.10	4.00	3.70	4.10	3.80	4.05	–	–	–	–	–	–	–
180 to 182 °C	COC(=O)Nc1cc2c(cn1)[nH]c1ccccc12 [Compound 22, 3-[(methoxycarbonyl)amino]-β-carboline]	3.70	3.68	3.80	3.49	3.64	3.89	3.77	–	–	–	–	–	–	–
221 to 223 °C	CCOC(=O)Nc1cc2c(cn1)[nH]c1ccccc12 [Compound 23, 3-[(ethoxycarbonyl)amino]-β-carboline]	2.67	< 2.52	< 2.52	< 2.52	< 2.52	< 2.52	< 2.52	–	–	–	–	–	–	–
226 to 228 °C	OCc1cc2c(cn1)[nH]c1ccccc12 [Compound 24, 3-hydroxymethyl-β-carboline]	2.97	3.11	3.31	3.44	3.24	3.13	3.21	–	–	–	–	–	–	–
131 to 132 °C	CC(=O)COc1cc2c(cn1)[nH]c1ccccc12 [Compound 25, 3-acetylmethoxy-β-carboline]	3.11	3.19	3.60	3.51	2.95	3.23	3.11	–	–	–	–	–	–	–
187 to 188 °C	COC(=O)c1cc2c3ccccc3n(Cc3ccccc3)c2cn1 [Compound 29, methyl 9-benzyl-β-carboline-3-carboxylate]	–	–	–	–	–	–	–	3.32	3.02	3.51	3.44	2.75	4.22	3.92
139 to 140 °C	CCOC(=O)c1cc2c3ccccc3n(C)c2cn1 [Compound 30, ethyl 9-methyl-β-carboline-3-carboxylate]	–	–	–	–	–	–	–	3.92	3.82	4.00	4.00	3.82	3.85	3.74
267 to 269 °C	Cn1c2ccccc2c2cc(C(=O)O)ncc21 [Compound 34, 9-methyl-β-carboline-3-carboxylic acid]	–	–	–	–	–	–	–	3.57	3.89	4.05	3.89	3.82	3.48	4.05
201 to 202 °C	CCn1c2ccccc2c2cc(C(=O)O)ncc21 [Compound 35, 9-ethyl-β-carboline-3-carboxylic acid]	–	–	–	–	–	–	–	3.68	3.80	4.22	3.85	3.74	3.64	3.74
235 to 238 °C	CCCCOC(=O)c1cc2c3ccccc3n(C)c2cn1 [Compound 38, butyl 9-methyl-β-carboline-3-carboxylate]	–	–	–	–	–	–	–	< 2.52	< 2.52	2.60	< 2.52	2.79	< 2.52	< 2.52
105 to 106 °C and 104 to 105 °C	CCCCOC(=O)c1cc2c3ccccc3n(Cc3ccccc3)c2cn1 [Compound 41, butyl 9-benzyl-β-carboline-3-carboxylate]	–	–	–	–	–	–	–	3.00	< 2.52	2.97	< 2.52	< 2.52	< 2.52	< 2.52
169 to 170 °C	O=C(OCc1ccccc1)c1cc2c3ccccc3n(Cc3ccccc3)c2cn1 [Compound 44, benzyl 9-benzyl-β-carboline-3-carboxylate]	–	–	–	–	–	–	–	< 2.52	< 2.52	< 2.52	< 2.52	< 2.52	< 2.52	< 2.52
213 to 214 °C	CCn1c2ccccc2c2cc(NC(=O)OC)ncc21 [Compound 53, 9-ethyl-3-[(methoxycarbonyl)amino]-β-carboline]	–	–	–	–	–	–	–	< 2.52	< 2.52	< 2.52	< 2.52	< 2.52	< 2.52	< 2.52
217 to 218 °C	CCOC(=O)Nc1cc2c3ccccc3n(CC)c2cn1 [Compound 54, 3-[(ethoxycarbonyl)amino]-9-ethyl-β-carboline]	–	–	–	–	–	–	–	< 2.52	< 2.52	< 2.52	< 2.52	< 2.52	2.77	< 2.52
141 to 142 °C	CCOC(=O)c1cc2c3ccccc3n(C)c2c(C)n1 [Compound 56, ethyl 1,9-dimethyl-β-carboline-3-carboxylate]	–	–	–	–	–	–	–	3.85	3.89	4.30	4.22	4.00	3.31	3.96
96 to 98 °C	CCOC(=O)c1cc2c3ccccc3n(CC)c2c(C)n1 [Compound 57, ethyl 9-ethyl-1-methyl-β-carboline-3-carboxylate]	–	–	–	–	–	–	–	3.80	4.15	4.30	4.22	4.10	3.06	4.22
155 to 156 °C	CCOC(=O)c1cc2c3ccccc3n(Cc3ccccc3)c2c(C)n1 [Compound 58, ethyl 9-benzyl-1-methyl-β-carboline-3-carboxylate]	–	–	–	–	–	–	–	2.86	2.68	3.77	2.74	2.70	3.68	3.60

SMILES	melting point	pIC50 ([1]; PLA-801, MTT, read-out: IC50)	pIC50 ([2]; BGC823, MTT, read-out: IC50)	pIC50 ([3]; Lovo, MTT, read-out: IC50)	pIC50 ([4]; NIH3T3, MTT, read-out: IC50)	pIC50 ([5]; HepG2, MTT, read-out: IC50)	pIC50 ([6]; BeI7402, MTT, read-out: IC50)	pIC50 ([7]; Hela, MTT, read-out: IC50)	pIC50 [1, 8]	pIC50 [2, 9]	pIC50 [3, 10]	pIC50 [4, 11]	pIC50 [5, 12]	pIC50 [6, 13]	pIC50 [7, 14]
CCCCn1c2ccccc2c2cc(C(=O)OC)ncc21 [Compound 28, methyl 9-n-butyl-β-carboline-3-carboxylate]	181 to 183 °C	–	–	–	–	–	–	–	3.85	3.51	3.77	4.10	3.34	3.37	3.54
CCCCn1c2ccccc2c2cc(C(=O)OCC)ncc21 [Compound 32, ethyl 9-butyl-β-carboline-3-carboxylate]	76 to 77 °C	–	–	–	–	–	–	–	4.15	3.12	3.77	4.22	3.32	3.11	3.31
CCCCOC(=O)c1cc2c3ccccc3n(CCCC)c2cn1 [Compound 40, butyl 9-butyl-β-carboline-3-carboxylate]	94 to 95 °C	–	–	–	–	–	–	–	2.67	4.15	4.40	4.30	2.97	2.97	3.02
CCOC(=O)c1cc2c3ccccc3n(CCCc3ccccc3)c2cn1 [Compound 45, ethyl 9-phenylpropyl-β-carboline-3-carboxylate]	140 to 142 °C	–	–	–	–	–	–	–	< 2.52	< 2.52	< 2.52	< 2.52	< 2.52	3.41	< 2.52
CCOC(=O)c1cc2c3ccccc3n(CCCc3ccccc3)c2c(C)n1 [Compound 59, ethyl 9-phenylpropyl-1-methyl-β-carboline-3-carboxylate]	101 to 102 °C	–	–	–	–	–	–	–	3.96	4.40	4.70	4.52	4.40	3.74	4.40

— patent US20090227619A1, “Harmine derivatives, intermediates used in their preparations, preparation processes and use therefo” (priority 2003, published 2009)
